According to patent US7534778B2, “(20S)-1α-hydroxy-2-methylene-19-nor-bishomopregnacalciferol and its uses” (Wisconsin Alumni Research Foundation, priority 2001, dated 2009):
“Also recorded” adds a separate entry of the source. Like-named read-outs stand apart in the source and are kept apart here.

Tests used:
[1] = test system: porcine intestinal vitamin D receptor; assay: binding to porcine intestinal vitamin D receptor; conditions: FIG. 2
[2] = test system: calcium mobilization from bone; assay: bone calcium mobilization in vitamin D-deficient rats on low calcium diet; assay type: in vivo, rat; conditions: for bone calcium mobilization activity (serum calcium levels): low calcium diet (0.02%), overall / all dosages, FIG. 4
Procedure: (§1) Calcium mobilization from bone and intestinal calcium absorption in vitamin D-deficient animals. Using vitamin D-deficient rats on a low calcium diet (0.02%), the activities of these compounds in intestine and bone were tested.

HL-60 cells = assay: HL-60 cell differentiation into monocytes; assay type: cell-based; conditions: FIG. 3; for EC50: HL-60 cells, read-out: EC50, HL60 differentiation
Procedure: The differentiation of HL-60 promyelocytic into monocytes was determined as described by Ostrem et al (J. Biol. Chem. 262, 14164-14171, 1987).
VDR binding and HL60 cell differentiation.

[3] = test system: intestinal calcium transport; assay: intestinal calcium transport, everted gut sac method, vitamin D-deficient rats; assay type: in vivo, rat; conditions: for intestinal calcium transport: everted gut sac, vitamin D-deficient rats
Procedure: as §1
Intestinal calcium transport was evaluated in the same groups of animals using the everted gut sac method (FIG. 5).

[4] = serum calcium response in vitamin D-sufficient normal female rats; assay type: in vivo, rat; conditions: for serum calcium (hypercalcemia): normal female rats, 5000 pmol/day for 7 days, oral or intraperitoneal, 4 hours after last dose
Procedure: Serum calcium response in vitamin D-sufficient animals on a normal calcium diet. […] The doses were administered to two separate groups of animals by either the oral or intraperitoneal route, and serum calcium levels were assessed 4 hours after the last dose.

[5] = molecular target: T1, full-length recombinant rat vitamin D receptor (Rattus norvegicus, UniProt P13053); assay: competition with [3H]-1,25(OH)2D3 for binding to vitamin D receptor; conditions: FIG. 2, read-out: Ki, competition with [3H]-1,25(OH)2D3 for VDR binding
T1 sequence (P13053 1-423): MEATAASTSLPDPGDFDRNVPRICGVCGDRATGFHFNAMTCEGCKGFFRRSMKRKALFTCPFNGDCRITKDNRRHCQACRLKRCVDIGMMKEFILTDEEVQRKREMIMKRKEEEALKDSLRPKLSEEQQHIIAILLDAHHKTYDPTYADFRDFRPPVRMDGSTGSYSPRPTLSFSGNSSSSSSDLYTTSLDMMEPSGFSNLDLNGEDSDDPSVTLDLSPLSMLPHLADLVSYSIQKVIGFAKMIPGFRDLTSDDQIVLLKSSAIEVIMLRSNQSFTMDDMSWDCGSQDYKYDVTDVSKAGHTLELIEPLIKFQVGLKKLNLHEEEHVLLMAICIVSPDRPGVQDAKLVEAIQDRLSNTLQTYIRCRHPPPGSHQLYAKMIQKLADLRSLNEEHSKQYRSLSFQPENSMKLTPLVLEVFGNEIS

binding to porcine receptor compared to standard 1,25-(OH)2D3 [1] | EC50 (HL-60 cells; Homo sapiens) [nM] | calcemic activity from serum calcium ([4]; rats, chronic doses, FIG. 6) | Ki [5] [nM] | Compound | mobilization of bone calcium ([2]; 260 pmol/day for 7 days) | mobilization of bone calcium ([2]; 1300 pmol/day (5-fold)) | bone calcium mobilization activity (serum calcium levels) [2] | potency on HL-60 differentiation relative to 1,25(OH)2D3 (HL-60 cells) | intestinal calcium transport ([3]; 260 or 1300 pmol/day) | intestinal calcium transport activity ([3]; overall, dose not stated) | serum calcium (hypercalcemia) [4] | EC50 (HL-60 cells) [nM] | intestinal calcium transport activity ([3]; doses higher than 1300 pmol/day) | intestinal calcium transport ([3]; 260 pmol/day)
bound equally well | 7 | very little calcemic activity | 0.6 | C=C1[C@H](O)CC(=C/C=C2\CCC[C@]3(C)[C@@H]([C@@H](C)CC)CC[C@@H]23)C[C@H]1O [2-MbisP, (20S)-1α-hydroxy-2-methylene-19-nor-bishomopregnacalciferol] | did not result in mobilization of bone calcium | without effect | very little bone calcium mobilization activity; also recorded: little, if any, activity in mobilizing calcium from bone | almost as potent as 1,25(OH)2D3 | do not promote intestinal calcium transport | very little activity | no increase in serum calcium |  |  | 
 |  |  | 0.3 | C=C1[C@H](O)CC(=C/C=C2\CCC[C@]3(C)[C@@H](CC)CC[C@@H]23)C[C@H]1O [2-Mpregna, 1α-hydroxy-2-methylene-19-nor-pregnacalciferol] | did not result in mobilization of bone calcium | without effect | little, if any, activity in mobilizing calcium from bone |  | do not promote intestinal calcium transport |  |  | 17 |  | 

Further lines, the molecule ahead of its results:

Compound | binding to porcine receptor compared to standard 1,25-(OH)2D3 [1] | EC50 (HL-60 cells; Homo sapiens) [nM] | calcemic activity from serum calcium ([4]; rats, chronic doses, FIG. 6) | Ki [5] [nM] | mobilization of bone calcium ([2]; 260 pmol/day for 7 days) | mobilization of bone calcium ([2]; 1300 pmol/day (5-fold)) | bone calcium mobilization activity (serum calcium levels) [2] | potency on HL-60 differentiation relative to 1,25(OH)2D3 (HL-60 cells) | intestinal calcium transport ([3]; 260 or 1300 pmol/day) | intestinal calcium transport activity ([3]; overall, dose not stated) | serum calcium (hypercalcemia) [4] | EC50 (HL-60 cells) [nM] | intestinal calcium transport activity ([3]; doses higher than 1300 pmol/day) | intestinal calcium transport ([3]; 260 pmol/day)
C=C1C(O)CC(=CC=C2CCCC3(C)C2CCC3C(C)C)CC1O (stereo not drawn) [2-MP, 1α-hydroxy-2-methylene-19-nor-homopregnacalciferol] |  |  |  | 0.3 | did not result in mobilization of bone calcium | without effect | little, if any, activity in mobilizing calcium from bone |  | calcium transport activity equivalent to 1,25(OH)2D3 |  |  | 6 | decreased this activity | 
C[C@H](CCCC(C)(C)O)[C@H]1CC[C@H]2/C(=C/C=C3C[C@@H](O)C[C@H](O)C3)CCC[C@]12C [1,25(OH)2 19-nor-D3, 1α,25-dihydroxy-19-nor-vitamin D3, reference compound] |  |  |  | 0.2 | did not result in mobilization of bone calcium |  |  |  |  | devoid of intestinal calcium transport activity | produced frank hypercalcemia | 4 |  | 
C=C1/C(=C\C=C2/CCC[C@]3(C)[C@@H]([C@H](C)CCCC(C)(C)O)CC[C@@H]23)C[C@@H](O)C[C@@H]1O [1,25(OH)2D3, 1α,25-dihydroxyvitamin D3, reference compound] |  |  |  |  |  |  | increased serum calcium levels at all dosages |  |  |  |  | 5 |  | promotes a significant increase
